Source: patent US20180318381A1, “Methods of Treatment of Rhabdomyolysis” (University of Pittsburgh - Of the Commonwealth System of …, priority 2015, published 2018)

Experiments:
[1] = test system: amyotrophic lateral sclerosis mouse model; conditions: ALS mouse model; cited from earlier work
[2] = test system: mice treated with azide; conditions: supplementation at the same time as azide; cited from earlier work
[3] = test system: Friedrich's ataxia cells; conditions: in response to oxidative stress; cited from earlier work
[4] = test system: patients with LC-FAODs

In the case of CCNC(=O)[C@]12CCC(C)(C)C[C@H]1[C@H]1C(=O)C=C3[C@@]4(C)C=C(C#N)C(=O)C(C)(C)[C@@H]4CC[C@@]3(C)[C@]1(C)CC2 [CDDO-EA, 2-cyano-3,12-dioxooleana-1,9-dien-28-oic acid-ethyl amide], the survival [1] is given as “improve survival”.

For CC(=O)OC[C@H]1O[C@@H](n2ccc(=O)[nH]c2=O)[C@H](OC(C)=O)[C@@H]1OC(C)=O [PN401, uridine triacetate], the “survival of the animals” value [2] is listed as “improved survival”.

For CC1(C)CC[C@]2(NC(=O)C(C)(F)F)CC[C@]3(C)[C@H](C(=O)C=C4[C@@]5(C)C=C(C#N)C(=O)C(C)(C)[C@@H]5CC[C@]43C)[C@@H]2C1 [RTA408, N-(2-cyano-3,12-dioxo-28-noroleana-1,9(11)-dien-17-yl)-2,2-difluoro-propanamide], the antioxidant gene expression [3] is given as “improve antioxidant gene expression”.

With CCCCCCC(=O)OCC(COC(=O)CCCCCC)OC(=O)CCCCCC [triheptanoin, 1,3-di(heptanoyloxy)propan-2-yl heptanoate] the “decrease in peak CK levels (trend)” value ([4]; 7 subjects with peak CK before and after treatment, P=0.1279) was 68%, the “decline in hypoglycemia event rate per year” value ([4]; 9 subjects with hypoglycemia problems, P=0.0091) was 96% and the hospitalizations ([4]; LC-FAOD patients, FIG. 14) was “reduced hospitalizations”. The hypoglycemic hospitalizations ([4]; LC-FAOD patients, FIG. 14) was “nearly eliminated”, the “number of days of hospital stay if hospitalized” value ([4]; LC-FAOD patients, FIG. 14) was “reduced” and the “number of hospitalization days with rhabdomyolysis” value ([4]; LC-FAOD patients, FIG. 14) was “decreased”. For the same compound, the “number of hospitalizations with rhabdomyolysis” value ([4]; LC-FAOD patients, FIG. 14) was “did not reduce”, the “peak CK levels” value ([4]; after treatment (from 85,855 before), 7 subjects) was 27,597 units and the “hypoglycemia event rate per year” value ([4]; after treatment (vs 0.92 before), n=9) was 0.04 per year. For the same compound, the hypoglycemia-related hospitalization days/year ([4]; after treatment (vs 8.42 before), n=9, P=0.0257) was 0.18 days/year, the hospitalization event rate ([4]; after triheptanoin initiation (vs 1.94 before), n=16) was 1.26 and the rhabdomyolysis hospitalization days/year ([4]; after triheptanoin initiation (vs 5.94 before), n=9, P=0.1224) was 2.36 days/year. For the same compound, the mean hospitalization days/year ([4]; after triheptanoin initiation (vs 17.55 before), n=15) was 5.76 days/year, the hypoglycemia in patients ([4]; patients having long chain FAODs) was “essentially eliminates hypoglycemia” and the episodes of rhabdomyolysis ([4]; patients having long chain FAODs on triheptanoin) was “continue to have episodes of rhabdomyolysis”. For the same compound, the “decrease in mean hospitalization days/year” value ([4]; period after triheptanoin initiation vs before, n=15, P=0.0242) was 67%.
